# From the NIST ThermoML archive (doi:10.1021/acs.jced.8b00132)
# Values joined by “and” are separate entries in the source; they are usually repeats but may differ in a detail not shown here. Equal entries are not always repeated. ± gives the expanded uncertainty stated by the source.
smiles,measurement,setting,value
O=C(C(F)(F)C(F)(F)F)C(F)(C(F)(F)F)C(F)(F)F [dodecafluoro-2-methylpentan-3-one],thermal conductivity,"300.81 K, 35 kPa, Gas, hot wire",0.0117 ± 0.00056 W/m/K and 0.01167 ± 0.00058 W/m/K
same,thermal conductivity,"300.82 K, 27 kPa, Gas, hot wire",0.01167 ± 0.00055 W/m/K
same,thermal conductivity,"301.02 K, 35 kPa, Gas, hot wire",0.01175 ± 0.00055 W/m/K and 0.01169 ± 0.00055 W/m/K
same,thermal conductivity,"301.02 K, 40 kPa, Gas, hot wire",0.01176 ± 0.00056 W/m/K and 0.01171 ± 0.00055 W/m/K
same,thermal conductivity,"301.04 K, 26 kPa, Gas, hot wire",0.01169 ± 0.00055 W/m/K
same,thermal conductivity,"301.04 K, 27 kPa, Gas, hot wire",0.01166 ± 0.00055 W/m/K
same,thermal conductivity,"301.12 K, 68548 kPa, Liquid, transient hot wire",0.07848 ± 0.0016 W/m/K
same,thermal conductivity,"301.12 K, 68619 kPa, Liquid, transient hot wire",0.07853 ± 0.0016 W/m/K
same,thermal conductivity,"301.16 K, 59412 kPa, Liquid, transient hot wire",0.07633 ± 0.0016 W/m/K
same,thermal conductivity,"301.16 K, 59421 kPa, Liquid, transient hot wire",0.07635 ± 0.0016 W/m/K
same,thermal conductivity,"301.2 K, 15856 kPa, Liquid, transient hot wire",0.06469 ± 0.0014 W/m/K
same,thermal conductivity,"301.2 K, 15861 kPa, Liquid, transient hot wire",0.06419 ± 0.0013 W/m/K
same,thermal conductivity,"301.2 K, 48052 kPa, Liquid, transient hot wire",0.07348 ± 0.0015 W/m/K
same,thermal conductivity,"301.21 K, 48059 kPa, Liquid, transient hot wire",0.07348 ± 0.0015 W/m/K
same,thermal conductivity,"301.23 K, 38563 kPa, Liquid, transient hot wire",0.07045 ± 0.0014 W/m/K
same,thermal conductivity,"301.23 K, 38570 kPa, Liquid, transient hot wire",0.07088 ± 0.0015 W/m/K
same,thermal conductivity,"301.25 K, 35 kPa, Gas, hot wire",0.01177 ± 0.00075 W/m/K and 0.01172 ± 0.00069 W/m/K
same,thermal conductivity,"301.25 K, 40 kPa, Gas, hot wire",0.01175 ± 0.00055 W/m/K and 0.01177 ± 0.00055 W/m/K
same,thermal conductivity,"301.26 K, 29951 kPa, Liquid, transient hot wire",0.06831 ± 0.0014 W/m/K
same,thermal conductivity,"301.26 K, 29959 kPa, Liquid, transient hot wire",0.06831 ± 0.0014 W/m/K
same,thermal conductivity,"301.27 K, 26 kPa, Gas, hot wire",0.0117 ± 0.00055 W/m/K
same,thermal conductivity,"301.27 K, 27 kPa, Gas, hot wire",0.01169 ± 0.00055 W/m/K
same,thermal conductivity,"301.27 K, 22365 kPa, Liquid, transient hot wire",0.06588 ± 0.0014 W/m/K
same,thermal conductivity,"301.27 K, 22366 kPa, Liquid, transient hot wire",0.06588 ± 0.0014 W/m/K
same,thermal conductivity,"301.29 K, 68411 kPa, Liquid, transient hot wire",0.07844 ± 0.0016 W/m/K
same,thermal conductivity,"301.3 K, 68477 kPa, Liquid, transient hot wire",0.07847 ± 0.0016 W/m/K
same,thermal conductivity,"301.31 K, 15646 kPa, Liquid, transient hot wire",0.06353 ± 0.0013 W/m/K
same,thermal conductivity,"301.32 K, 15647 kPa, Liquid, transient hot wire",0.06353 ± 0.0013 W/m/K
same,thermal conductivity,"301.32 K, 15982 kPa, Liquid, transient hot wire",0.06426 ± 0.0013 W/m/K
same,thermal conductivity,"301.32 K, 68614 kPa, Liquid, transient hot wire",0.07896 ± 0.0016 W/m/K
same,thermal conductivity,"301.33 K, 15978 kPa, Liquid, transient hot wire",0.06437 ± 0.0013 W/m/K
same,thermal conductivity,"301.33 K, 58469 kPa, Liquid, transient hot wire",0.07677 ± 0.0016 W/m/K
same,thermal conductivity,"301.33 K, 68621 kPa, Liquid, transient hot wire",0.07913 ± 0.0016 W/m/K
same,thermal conductivity,"301.34 K, 29983 kPa, Liquid, transient hot wire",0.06887 ± 0.0014 W/m/K
same,thermal conductivity,"301.34 K, 38644 kPa, Liquid, transient hot wire",0.07116 ± 0.0015 W/m/K
same,thermal conductivity,"301.34 K, 38645 kPa, Liquid, transient hot wire",0.07082 ± 0.0015 W/m/K
same,thermal conductivity,"301.34 K, 48192 kPa, Liquid, transient hot wire",0.07381 ± 0.0015 W/m/K
same,thermal conductivity,"301.34 K, 48193 kPa, Liquid, transient hot wire",0.07385 ± 0.0015 W/m/K
same,thermal conductivity,"301.34 K, 58483 kPa, Liquid, transient hot wire",0.07689 ± 0.0016 W/m/K
same,thermal conductivity,"301.35 K, 9734 kPa, Liquid, transient hot wire",0.06181 ± 0.0013 W/m/K
same,thermal conductivity,"301.35 K, 9737 kPa, Liquid, transient hot wire",0.06163 ± 0.0013 W/m/K
same,thermal conductivity,"301.35 K, 29988 kPa, Liquid, transient hot wire",0.06876 ± 0.0014 W/m/K
same,thermal conductivity,"301.35 K, 59394 kPa, Liquid, transient hot wire",0.07632 ± 0.0016 W/m/K
same,thermal conductivity,"301.35 K, 59405 kPa, Liquid, transient hot wire",0.07636 ± 0.0016 W/m/K
same,thermal conductivity,"301.36 K, 186 kPa, Liquid, transient hot wire",0.05707 ± 0.0012 W/m/K
same,thermal conductivity,"301.36 K, 22446 kPa, Liquid, transient hot wire",0.0654 ± 0.0014 W/m/K
same,thermal conductivity,"301.37 K, 186 kPa, Liquid, transient hot wire",0.05699 ± 0.0012 W/m/K
same,thermal conductivity,"301.37 K, 4437 kPa, Liquid, transient hot wire",0.05962 ± 0.0012 W/m/K
same,thermal conductivity,"301.37 K, 4442 kPa, Liquid, transient hot wire",0.05915 ± 0.0012 W/m/K
same,thermal conductivity,"301.37 K, 22450 kPa, Liquid, transient hot wire",0.06542 ± 0.0014 W/m/K
same,thermal conductivity,"301.38 K, 9940 kPa, Liquid, transient hot wire",0.06178 ± 0.0013 W/m/K
same,thermal conductivity,"301.39 K, 94 kPa, Liquid, transient hot wire",0.05683 ± 0.0012 W/m/K
same,thermal conductivity,"301.39 K, 100 kPa, Liquid, transient hot wire",0.05659 ± 0.0012 W/m/K
same,thermal conductivity,"301.39 K, 9943 kPa, Liquid, transient hot wire",0.06137 ± 0.0013 W/m/K
same,thermal conductivity,"301.39 K, 68810 kPa, Liquid, transient hot wire",0.07913 ± 0.0016 W/m/K
same,thermal conductivity,"301.39 K, 68825 kPa, Liquid, transient hot wire",0.07893 ± 0.0016 W/m/K
same,thermal conductivity,"301.4 K, 48039 kPa, Liquid, transient hot wire",0.0735 ± 0.0015 W/m/K
same,thermal conductivity,"301.4 K, 48041 kPa, Liquid, transient hot wire",0.07342 ± 0.0015 W/m/K
same,thermal conductivity,"301.41 K, 182 kPa, Liquid, transient hot wire",0.057 ± 0.0012 W/m/K
same,thermal conductivity,"301.42 K, 181 kPa, Liquid, transient hot wire",0.05699 ± 0.0012 W/m/K
same,thermal conductivity,"301.43 K, 4512 kPa, Liquid, transient hot wire",0.0591 ± 0.0012 W/m/K
same,thermal conductivity,"301.43 K, 4517 kPa, Liquid, transient hot wire",0.05911 ± 0.0012 W/m/K
same,thermal conductivity,"301.43 K, 38558 kPa, Liquid, transient hot wire",0.0709 ± 0.0015 W/m/K
same,thermal conductivity,"301.44 K, 38562 kPa, Liquid, transient hot wire",0.07087 ± 0.0015 W/m/K
same,thermal conductivity,"301.46 K, 29951 kPa, Liquid, transient hot wire",0.06828 ± 0.0014 W/m/K
same,thermal conductivity,"301.47 K, 29958 kPa, Liquid, transient hot wire",0.0683 ± 0.0014 W/m/K
same,thermal conductivity,"301.48 K, 22365 kPa, Liquid, transient hot wire",0.06549 ± 0.0014 W/m/K
same,thermal conductivity,"301.49 K, 22364 kPa, Liquid, transient hot wire",0.06585 ± 0.0014 W/m/K
same,thermal conductivity,"301.49 K, 68338 kPa, Liquid, transient hot wire",0.07849 ± 0.0016 W/m/K
same,thermal conductivity,"301.5 K, 35 kPa, Gas, hot wire",0.01174 ± 0.00056 W/m/K
same,thermal conductivity,"301.5 K, 40 kPa, Gas, hot wire",0.01178 ± 0.00055 W/m/K
same,thermal conductivity,"301.5 K, 41 kPa, Gas, hot wire",0.01177 ± 0.00056 W/m/K
same,thermal conductivity,"301.5 K, 68274 kPa, Liquid, transient hot wire",0.07839 ± 0.0016 W/m/K
same,thermal conductivity,"301.51 K, 35 kPa, Gas, hot wire",0.01178 ± 0.00068 W/m/K
same,thermal conductivity,"301.52 K, 27 kPa, Gas, hot wire",0.01171 ± 0.00056 W/m/K
same,thermal conductivity,"301.53 K, 27 kPa, Gas, hot wire",0.0117 ± 0.00055 W/m/K
same,thermal conductivity,"301.54 K, 121 kPa, Liquid, transient hot wire",0.05731 ± 0.0012 W/m/K and 0.05707 ± 0.0012 W/m/K
same,thermal conductivity,"301.54 K, 15641 kPa, Liquid, transient hot wire",0.06381 ± 0.0013 W/m/K
same,thermal conductivity,"301.54 K, 15643 kPa, Liquid, transient hot wire",0.06352 ± 0.0013 W/m/K
same,thermal conductivity,"301.54 K, 59383 kPa, Liquid, transient hot wire",0.07629 ± 0.0016 W/m/K
same,thermal conductivity,"301.54 K, 59392 kPa, Liquid, transient hot wire",0.07615 ± 0.0016 W/m/K
same,thermal conductivity,"301.56 K, 34 kPa, Gas, transient hot wire",0.01199 ± 0.0017 W/m/K
same,thermal conductivity,"301.57 K, 34 kPa, Gas, transient hot wire",0.01211 ± 0.0008 W/m/K
same,thermal conductivity,"301.59 K, 15866 kPa, Liquid, transient hot wire",0.06262 ± 0.0013 W/m/K
